In DBAASP:
In brackets after ≈: the same amount, converted by molar mass.

Legend:
Assay in all cases: ≥ marks a high value that may be exact or a test limit, other limits are often not marked, values filed in µg/mL are converted to µM
[1] = system: Staphylococcus aureus NCTC 10788
[2] = system: Escherichia coli ATCC 25922
[3] = system: Staphylococcus aureus NCTC 8325
[4] = system: Bacillus subtilis ATCC 23857
[5] = system: Candida albicans ATCC 90028
[6] = system: Klebsiella pneumoniae ATCC 700603
[7] = system: Pseudomonas aeruginosa ATCC 9027
[8] = system: Staphylococcus aureus ATCC 25923

## CC(C)C[C@H](NC(=O)[C@H](CC(C)C)NC(=O)CNC(=O)CNC(=O)[C@H](CC(C)C)NC(=O)[C@H](CC(C)C)NC(=O)CNC(=O)[C@H](CC(C)C)NC(=O)[C@@H](N)Cc1ccccc1)C(N)=O [FLGLLGGLL]
[1]
  MIC: ≥ 284 µM

## CC[C@H](C)[C@@H]1NC(=O)[C@H](CC(C)C)NC(=O)[C@@H](NC(=O)[C@@H](NC(=O)[C@H](Cc2ccccc2)NC(=O)[C@H](CCCCN)NC(=O)[C@@H]2CCCN2C(=O)[C@@H](NC(=O)[C@H](CCSC)NC(=O)[C@H](CO)NC(=O)[C@H](C)NC(=O)[C@H](C)NC(=O)[C@H](CC(C)C)NC(=O)CNC(=O)[C@H](C)NC(=O)[C@H](CC(C)C)NC(=O)[C@H](CCSC)NC(=O)[C@@H]2CCCN2C(=O)[C@H](CC(C)C)NC(=O)[C@@H](N)Cc2ccccc2)C(C)C)C(C)C)CSSC[C@@H](C(=O)O)NC(=O)[C@H](CCCCN)NC(=O)[C@H](CCCCN)NC(=O)[C@H]([C@@H](C)O)NC1=O [FLPMLAGLAASMVPKFVCLITKKC]
[2]
  MIC: 16 µM (≈ 41.3 µg/mL)
[3]
  MIC: 8 µM (≈ 20.6 µg/mL)

## CC[C@H](C)[C@H](NC(=O)CNC(=O)[C@H](CO)NC(=O)[C@H](CC(C)C)NC(=O)[C@H](CC(C)C)NC(=O)[C@H](CCCCN)NC(=O)CNC(=O)[C@@H](NC(=O)[C@@H](NC(=O)[C@@H]1CCCN1C(=O)[C@H](CC(C)C)NC(=O)[C@@H](NC(=O)[C@@H](NC(=O)[C@@H]1CCCN1C(=O)[C@H](CC(C)C)NC(=O)[C@@H](N)Cc1ccccc1)C(C)C)[C@@H](C)CC)C(C)C)[C@@H](C)CC)C(=O)N[C@@H](CC(C)C)C(N)=O [FLPVILPVIGKLLSGIL]
[2]
  MIC: > 50 µM
[3]
  MIC: 25 µM (≈ 44.8 µg/mL)

## CC[C@H](C)[C@H](NC(=O)CN)C(=O)N[C@H](C(=O)N[C@@H](CCCN=C(N)N)C(=O)NCC(=O)N[C@H](C(=O)N[C@H](C(=O)N[C@@H](CCCN=C(N)N)C(=O)N[C@@H](CCCN=C(N)N)C(=O)N[C@H](C(=O)N[C@@H](CCCCN)C(=O)NCC(N)=O)[C@@H](C)CC)[C@@H](C)CC)[C@@H](C)CC)[C@@H](C)CC [GIIRGIIRRIKG]
[2]
  MIC: > 128 µM
[4]
  MIC: 8 µM (≈ 10.8 µg/mL)

## CC[C@H](C)[C@H](NC(=O)CN)C(=O)N[C@@H](CCCN=C(N)N)C(=O)N[C@@H](CCCN=C(N)N)C(=O)NCC(=O)N[C@H](C(=O)N[C@H](C(=O)N[C@@H](CCCN=C(N)N)C(=O)N[C@H](C(=O)N[C@H](C(=O)N[C@@H](CCCCN)C(=O)N[C@@H](CCCN=C(N)N)C(N)=O)[C@@H](C)CC)[C@@H](C)CC)[C@@H](C)CC)[C@@H](C)CC [GIRRGIIRIIKR]
[2]
  MIC: 64 µM (≈ 92.8 µg/mL)
[4]
  MIC: 16 µM (≈ 23.2 µg/mL)

## CC[C@H](C)[C@H](NC(=O)CN)C(=O)N[C@@H](CCCN=C(N)N)C(=O)N[C@@H](CCCN=C(N)N)C(=O)NCC(=O)N[C@H](C(=O)N[C@@H](CCCN=C(N)N)C(=O)N[C@@H](CCCN=C(N)N)C(=O)N[C@H](C(=O)N[C@@H](CCCCN)C(=O)N[C@@H](CCCCN)C(=O)N[C@@H](CCCN=C(N)N)C(N)=O)[C@@H](C)CC)[C@@H](C)CC [GIRRGIRRIKKR]
[2]
  MIC: > 128 µM
[4]
  MIC: ≥ 128 µM

## CC[C@H](C)[C@H](NC(=O)CN)C(=O)N[C@@H](Cc1c[nH]c2ccccc12)C(=O)N[C@@H](CC(=O)O)C(=O)N[C@H](C(=O)N[C@@H](CC(C)C)C(=O)N[C@@H](CCCCN)C(=O)N[C@@H](CC(N)=O)C(=O)N[C@H](C(=O)NCC(=O)N[C@@H](CCCCN)C(=O)N[C@@H](C)C(=O)N[C@H](C(=O)N[C@@H](CC(C)C)C(=O)NCC(=O)N[C@@H](CCCCN)C(=O)N[C@H](C(=O)N[C@@H](CC(C)C)C(=O)N[C@@H](CCC(=O)O)C(=O)N[C@@H](CC(N)=O)C(=O)N[C@H](C(N)=O)C(C)C)C(C)C)C(C)C)C(C)C)[C@@H](C)O [GIWDTLKNVGKAVLGKVLENV]
[2]
  MIC: 12.5 µM (≈ 28.2 µg/mL)
[3]
  MIC: ≥ 50 µM

## CC[C@H](C)[C@H](NC(=O)[C@H](CC(C)C)NC(=O)[C@H](CC(C)C)NC(=O)[C@H](CC(N)=O)NC(=O)[C@H](CCCCN)NC(=O)[C@@H](NC(=O)[C@@H](NC(=O)CNC(=O)[C@H](CC(C)C)NC(=O)[C@@H](NC(=O)CN)C(C)C)[C@@H](C)O)C(C)C)C(=O)NCC(=O)N[C@@H](C)C(=O)NCC(=O)N[C@@H](CCCCN)C(=O)N[C@@H](CO)C(=O)N[C@@H](C)C(=O)N[C@@H](C)C(=O)N[C@@H](CCC(N)=O)C(=O)N[C@@H](CO)C(=O)N[C@H](C(=O)N[C@@H](CC(C)C)C(=O)N[C@@H](CCCCN)C(=O)N[C@H](C(=O)N[C@@H](CC(C)C)C(=O)N[C@@H](CO)C(=O)N[C@H]1CSSC[C@@H](C(=O)O)NC(=O)[C@H](CC(=O)O)NC(=O)[C@H](CC(N)=O)NC(=O)[C@H](CO)NC(=O)[C@H](CC(C)C)NC(=O)[C@H](CCCCN)NC1=O)[C@@H](C)O)C(C)C [GVLGTVKNLLIGAGKSAAQSVLKTLSCKLSNDC]
[5]
  MIC: ≥ 100 µM
[2]
  MIC: 6 µM (≈ 19.7 µg/mL)
[3]
  MIC: 25 µM (≈ 82.2 µg/mL)

## CC[C@H](C)[C@H](N)C(=O)N[C@@H](CC(C)C)C(=O)N1CCC[C@H]1C(=O)N[C@H](C(=O)N[C@@H](CC(C)C)C(=O)NCC(=O)N[C@@H](CC(N)=O)C(=O)N[C@@H](CC(C)C)C(=O)N[C@@H](CC(C)C)C(=O)N[C@@H](CC(N)=O)C(=O)NCC(=O)N[C@@H](CC(C)C)C(=O)N[C@@H](CC(C)C)C(N)=O)[C@@H](C)CC [ILPILGNLLNGLL]
[5]
  MIC: ≥ 100 µM
[2]
  MIC: > 100 µM
[3]
  MIC: ≥ 100 µM

## CC[C@H](C)[C@H](NC(=O)[C@H](CCCCN)NC(=O)[C@H](CCCCN)NC(=O)[C@H](C)NC(=O)[C@@H](NC(=O)[C@H](C)NC(=O)[C@H](CC(C)C)NC(=O)[C@H](CC(C)C)NC(=O)[C@H](C)NC(=O)[C@H](CCCCN)NC(=O)[C@H](CC(C)C)NC(=O)[C@H](C)NC(=O)[C@@H](N)CC(C)C)C(C)C)C(=O)N[C@@H](CC(C)C)C(N)=O [LALKALLAVAKKIL]
[2]
  MIC: 4 µM (≈ 5.86 µg/mL)
[6]
  MIC: 8 µM (≈ 11.7 µg/mL)
[7]
  MIC: 8 µM (≈ 11.7 µg/mL)
[8]
  MIC: 4 µM (≈ 5.86 µg/mL)
[4]
  MIC: 4 µM (≈ 5.86 µg/mL)

## CC[C@H](C)[C@H](NC(=O)[C@H](CCCCN)NC(=O)[C@H](CCCCN)NC(=O)[C@H](C)NC(=O)[C@@H](NC(=O)[C@H](C)NC(=O)[C@H](CC(C)C)NC(=O)[C@H](CC(C)C)NC(=O)[C@H](C)NC(=O)[C@H](C)NC(=O)[C@H](CC(C)C)NC(=O)[C@H](CC(N)=O)NC(=O)[C@@H](N)CC(C)C)C(C)C)C(=O)N[C@@H](CC(C)C)C(N)=O [LNLAALLAVAKKIL]
[2]
  MIC: 8 µM (≈ 11.6 µg/mL)
[6]
  MIC: 32 µM (≈ 46.4 µg/mL)
[7]
  MIC: 32 µM (≈ 46.4 µg/mL)
[8]
  MIC: 4 µM (≈ 5.8 µg/mL)
[4]
  MIC: 16 µM (≈ 23.2 µg/mL)

## CC(C)C[C@H](NC(=O)[C@H](C)NC(=O)[C@H](CCCCN)NC(=O)[C@H](CCCCN)NC(=O)[C@H](C)NC(=O)[C@@H](NC(=O)[C@H](C)NC(=O)[C@H](CC(C)C)NC(=O)[C@H](CC(C)C)NC(=O)[C@H](C)NC(=O)[C@H](CCCCN)NC(=O)[C@H](CC(C)C)NC(=O)[C@H](CC(N)=O)NC(=O)[C@@H](N)CC(C)C)C(C)C)C(N)=O [LNLKALLAVAKKAL]
[2]
  MIC: 8 µM (≈ 11.7 µg/mL)
[6]
  MIC: 32 µM (≈ 46.9 µg/mL)
[7]
  MIC: 32 µM (≈ 46.9 µg/mL)
[8]
  MIC: 32 µM (≈ 46.9 µg/mL)
[4]
  MIC: 8 µM (≈ 11.7 µg/mL)

## CC[C@H](C)[C@@H]1NC(=O)[C@H](CCCCN)NC(=O)[C@@H](NC(=O)[C@H](C)NC(=O)[C@@H](NC(=O)[C@H](CC(C)C)NC(=O)CNC(=O)[C@H](CC(C)C)NC(=O)CNC(=O)[C@@H](NC(=O)[C@H](CCCCN)NC(=O)CNC(=O)[C@H](CC(C)C)NC(=O)[C@H](CC(N)=O)NC(=O)[C@H](CCCCN)NC(=O)[C@H](CC(C)C)NC(=O)[C@@H](NC(=O)[C@H](CO)NC(=O)[C@H](CC(C)C)NC(=O)[C@H](CCSC)NC(=O)[C@@H](N)CO)C(C)C)C(C)C)C(C)C)CSSC[C@@H](C(=O)O)NC(=O)[C@H](CCC(N)=O)NC(=O)[C@H](CCCCN)NC(=O)[C@H](CC(N)=O)NC1=O [SMLSVLKNLGKVGLGLVACKINKQC]
[5]
  MIC: ≥ 58 µM
[2]
  MIC: 1.5 µM (≈ 3.92 µg/mL)
[3]
  MIC: ≥ 55 µM
